From ChEMBL document CHEMBL3046530, “Novel potential nonsedating H1 antagonists related to the gauche rotamer of PROS-NH-histamine” (Med Chem Res, 2009)

How the values were obtained:
Format in all cases: tissue-based
[1] = target: Histamine H1 receptor (Cavia porcellus) (UniProt P31389); assay: Inhibition of H1 receptor in Cavia porcellus Hartley (guinea pig) ileum assessed as inhibition of histamine-induced spasms incubated at 10 '-2 M 2 min prior histamine-challenge
[2] = target: Histamine H1 receptor (Cavia porcellus) (UniProt P31389); assay: Inhibition of H1 receptor in Cavia porcellus Hartley (guinea pig) ileum assessed as inhibition of histamine-induced spasms incubated at 10 '-3 M 2 min prior histamine-challenge
[3] = target: Histamine H1 receptor (Cavia porcellus) (UniProt P31389); assay: Inhibition of H1 receptor in Cavia porcellus Hartley (guinea pig) ileum assessed as inhibition of histamine-induced spasms incubated at 10 '-5 M 2 min prior histamine-challenge
[4] = target: Histamine H1 receptor (Cavia porcellus) (UniProt P31389); assay: Inhibition of H1 receptor in Cavia porcellus Hartley (guinea pig) ileum assessed as inhibition of histamine-induced spasms incubated at 10 '-4 M 2 min prior histamine-challenge
[5] = target: Histamine H1 receptor (Cavia porcellus) (UniProt P31389); assay: Inhibition of H1 receptor in Cavia porcellus Hartley (guinea pig) ileum assessed as inhibition of histamine-induced spasms incubated at 10 '-6 M 2 min prior histamine-challenge
[6] = target: Histamine H1 receptor (Cavia porcellus) (UniProt P31389); assay: Inhibition of H1 receptor in Cavia porcellus Hartley (guinea pig) ileum assessed as inhibition of histamine-induced spasms incubated 2 min prior histamine-challenge relative to acrivastine
[7] = target: Histamine H1 receptor (Cavia porcellus, UniProt P31389); assay: Inhibition of H1 receptor in Cavia porcellus Hartley (guinea pig) ileum assessed as inhibition of histamine-induced spasms incubated 2 min prior histamine-challenge
Chain of Histamine H1 receptor (P31389 whole entry): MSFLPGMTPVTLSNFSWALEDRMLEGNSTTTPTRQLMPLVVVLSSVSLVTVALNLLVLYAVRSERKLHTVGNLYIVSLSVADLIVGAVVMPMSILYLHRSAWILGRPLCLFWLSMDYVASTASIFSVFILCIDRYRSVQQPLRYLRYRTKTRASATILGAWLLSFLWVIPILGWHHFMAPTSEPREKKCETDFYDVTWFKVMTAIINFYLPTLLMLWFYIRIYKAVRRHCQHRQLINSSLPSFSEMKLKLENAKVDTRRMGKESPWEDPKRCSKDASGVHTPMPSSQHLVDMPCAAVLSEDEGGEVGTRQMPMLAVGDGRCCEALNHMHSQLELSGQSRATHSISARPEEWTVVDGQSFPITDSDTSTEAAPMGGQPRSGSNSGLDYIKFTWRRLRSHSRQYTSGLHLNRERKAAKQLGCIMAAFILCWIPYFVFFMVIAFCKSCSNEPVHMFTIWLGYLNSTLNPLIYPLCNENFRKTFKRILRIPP

Chain of Histamine H1 receptor (Cavia porcellus) (P31389 whole entry): as above

| Structure (SMILES) | inhibition [1] | inhibition [2] | inhibition [3] | inhibition [4] | inhibition [5] | Emax [6] | IC50 [7] |
| --- | --- | --- | --- | --- | --- | --- | --- |
| CC(CO)(CO)NCc1nc2ccccc2[nH]1 | 85.7% | 50% | 11.2% | 14.2% | 0% | 14.2% |  |
| CC(C)(CO)NC=C1C(=O)NC(=O)NC1=O | 100% | 85.5% | 40% | 65% | 16.7% | 65% | 6.15 µM |
| Cc1ccc(/C(=C\CN2CCCC2)c2cccc(/C=C/C(=O)O)n2)cc1 [ACRIVASTINE] | 100% | 100% | 60% | 100% | 16.6% | 100% | 6.12 µM |
| CC(C)(CO)NCC(C)(C)N1C(=O)c2ccccc2C1=O | 100% | 62.9% | 0% | 20% | 0% | 20% |  |
| O=C1NC(=O)C(=CNC2CCCCC2)C(=O)N1 | 100% | 100% | 55.3% | 100% | 20% | 100% | 7 µM |
| CC(CO)(CO)NCCCN1C(=O)c2ccccc2C1=O | 100% | 69.2% | 28.4% | 54% | 5.45% | 54% | 80.2 µM |
| CC(CO)(CO)Nc1nc2ccccc2[nH]1 | 100% | 69% | 29.6% | 55% | 7.16% | 55% | 28.9 µM |
| O=C1c2ccccc2C(=O)N1CC(O)CNC1CCCCC1 (racemic) | 78.3% | 66% | 33.3% | 37.5% | 12.9% | 37.5% |  |
| CC(C)CNCC(C)(C)N1C(=O)c2ccccc2C1=O | 22% | 20% | 16% | 18% | 14% | 18% |  |
| CCOC(=O)N1CCN(C=C2C(=O)NC(=O)NC2=O)CC1 | 25% | 25% | 9% | 25% | 8% | 25% |  |
| OCCN(Cc1nc2ccccc2[nH]1)c1nc2ccccc2[nH]1 | 65.5% | 60% | 10.5% | 11% | 0% | 11% |  |
| O=C1NC(=O)C(=CN2CCOCC2)C(=O)N1 | 100% | 100% | 57.3% | 100% | 12.8% | 100% | 86.8 µM |
| CC(C)(CO)N1C(=O)c2ccccc2C1=O | 0% | 0% | 0% | 0% | 0% | 0% |  |
